Data published in paper PMC11189555, “Aryl amino acetamides prevent Plasmodium falciparum ring development via targeting the lipid-transfer protein PfSTART1” (Nature Communications, 2024).
Where two headings read alike, the source gives them in different places.

Test system: PopD F7 M-833 resistant clone (PfSTART1 N309K)
Assay: Growth inhibition assay (72 h, LDH activity)
Format: cell-based, Plasmodium falciparum
Method: The drug was then removed, and parasites were allowed to recover. Another cycle of drug treatment (3 μM M-833) was then resumed. The resistant lines were cloned out by limiting dilution (diluting the culture into a 96-well plate to achieve an average of ~0.3 parasites per well), prior to growth inhibition assays and genomic DNA (gDNA) extraction (DNeasy Blood and Tissue kit (Qiagen)[18].
Parasite growth assays with inhibitory compounds were performed as per[11] and are fully described in the Supplementary Information.
Molecular biology and transfection of P. falciparum: CRISPR method.
The full 5’ homology region of pfstart1 (either WT, N309K or N330K) was amplified from pPfSTART1-HA-2A-Neo-glmS with the same 5’ BglII primer and a new 3’ primer that replaced with PstI with SpeI and introduced a stop codon. The PCR product was then digested with BglII and SpeI and inserted into similarly digested p1.2 parasite vector2. The p1.2 vector had previously been inserted with a homology region amplified from the 3’ end of the pfstart1 gene (3’HB) to form a second homology block for double recombination. The primers used to amplify 3’HB are listed primers listed in […]
60 μg of p1.2-PfSTART1(WT/N309K/N330K) plasmid was linearised with KasI, precipitated in 3 M sodium acetate and ethanol (70% final concentration) overnight at -20°C. The DNA pellet was washed in cold 70% ethanol and resuspended in cytomix 3.
50 μ M of crRNA ( Table S 2) and 50 μM of tracRNA (Integrated DNA Technologies) were allowed to form a duplex (5 min at 95°C), and Cas9 enzyme (Integrated DNA Technologies) was added, and incubated for 20 min at room temperature 4. This crRNA -tracRNA -Cas9 mix was added to each DNA preparation and transfected to 3D7 ring parasites using the Bio -Rad Gene Pulser at 310 V and 950 μF.
Parasites containing the transfected DNA were selected using 2.5 nM WR99210 (Jacobus). Parasites lines were cloned using limiting dilution. Correct integration was tested by PCR (using primer START_5’UTR.F and START_Int.R1 , Table S 2), and sequencing was done using the primers START_3F and START_Int.R2 (Table S 2).
Growth inhibition assays. Synchronised ring-stage parasites (0.3-0.6% parasitemia, 2% haematocrit) were grown for 72 h in a serial-dilution of the compound under […]
and compound 4. Note that M-833 was first purchased from MolPort (MolPort -002-267-916) then made in-house at WEHI: the differences observed in EC50s across experiments are attributed to the different batches of M -833. For some experiments, 0, 0.25 or 2.5 mM of glucosamine (GlcN) was also added. Experiments were set up in technical duplicates or triplicates. Following a freeze -thaw cycle, lactate dehydrogenase (LDH) activity was assessed as an indicator of parasite growt h 5. 30 μL of parasite culture was incubated for 30 min in the dark with 75 μL Malstat mixture (0.1 M Tris pH 9.0, 20 g/L lactic acid, pH 7.5, 0.2% Triton-X100, 0.5 g/L acetylpyridine adenine dinucleotide (APAD, Sigma), 200 μg/mL nitroblue tetrazolium (NBT; Sigma), 1 μg/mL phenozine ethosulfate (PES; Sigma)). Absorbance was then measured at 650 nm, transformed using the formula below, plotted against the logarithm of the concentrations, and a non-linear regression (log(inhibitor) vs. response, variable slope) was calculated using GraphPad Prism to assess the half-inhibitory […]
Growth inhibition % = (1 − average(sample)− average(uRBC)) ∗ 100 […]
The DMSO samples were also used to assess growth of parasite in the presence of 0.25 and 2.5 mM GlcN (normalised by DMSO in 0 mM GlcN).
Egress, invasion & recovery assay. To measure egress, invasion and follow up recovery in the presence of different compounds, we adapted the method developed in6, using Hyp1-Nluc parasites7. These parasites episomally express the exported PEXEL protein Hyp1 (PF3D7_0113300) tagged with a NanoLuc luciferase (NLuc) and were selected with 2.5 nM WR99210 (Jacobus). Highly synchronised schizonts were […]

With `Cc1cc(Cl)c(S(=O)(=O)N2CCCC2)cc1OCC(=O)NC1CCCCC1` [M-833] the “Normalised to DMSO” value (M-833 0.0390625 uM, Pop D-F7 replicate 1) was 102.746, the “Normalised to DMSO” value (M-833 0.0390625 uM, Pop D-F7 replicate 3) was 104.013 and the “Normalised to DMSO” value (M-833 0.078125 uM, Pop D-F7 replicate 1) was 103.501. The “Normalised to DMSO” value (M-833 0.078125 uM, Pop D-F7 replicate 3) was 102.629, the “Normalised to DMSO” value (M-833 0.15625 uM, Pop D-F7 replicate 1) was 104.635 and the “Normalised to DMSO” value (M-833 0.15625 uM, Pop D-F7 replicate 3) was 103.875. For the same compound, the “Normalised to DMSO” value (M-833 0.3125 uM, Pop D-F7 replicate 1) was 106.297, the “Normalised to DMSO” value (M-833 0.3125 uM, Pop D-F7 replicate 3) was 100.415 and the “Normalised to DMSO” value (M-833 0.625 uM, Pop D-F7 replicate 1) was 98.8413. For the same compound, the “Normalised to DMSO” value (M-833 0.625 uM, Pop D-F7 replicate 3) was 99.3081, the “Normalised to DMSO” value (M-833 1.25 uM, Pop D-F7 replicate 1) was 89.7985 and the “Normalised to DMSO” value (M-833 1.25 uM, Pop D-F7 replicate 3) was 89.8985. For the same compound, the “Normalised to DMSO” value (M-833 2.5 uM, Pop D-F7 replicate 1) was 74.9622, the “Normalised to DMSO” value (M-833 2.5 uM, Pop D-F7 replicate 3) was 59.8708 and the “Normalised to DMSO” value (M-833 5 uM, Pop D-F7 replicate 1) was 50.7053. For the same compound, the “Normalised to DMSO” value (M-833 5 uM, Pop D-F7 replicate 3) was 43.6808, the “Normalised to DMSO” value (M-833 10 uM, Pop D-F7 replicate 1) was 28.7406 and the “Normalised to DMSO” value (M-833 10 uM, Pop D-F7 replicate 3) was 39.9446. It also gave an inhibition at 0.0390625 µM (Plasmodium falciparum, M-833 0.0390625 uM, Pop D-F7 replicate 1, read-out: % Inhibition) of -2.75%, an inhibition at 0.0390625 µM (Plasmodium falciparum, M-833 0.0390625 uM, Pop D-F7 replicate 3, read-out: % Inhibition) of -4.01% and an inhibition at 0.078125 µM (Plasmodium falciparum, M-833 0.078125 uM, Pop D-F7 replicate 1, read-out: % Inhibition) of -3.5%. It also gave an inhibition at 0.078125 µM (Plasmodium falciparum, M-833 0.078125 uM, Pop D-F7 replicate 3, read-out: % Inhibition) of -2.63%, an inhibition at 0.15625 µM (Plasmodium falciparum, M-833 0.15625 uM, Pop D-F7 replicate 1, read-out: % Inhibition) of -4.63% and an inhibition at 0.15625 µM (Plasmodium falciparum, M-833 0.15625 uM, Pop D-F7 replicate 3, read-out: % Inhibition) of -3.87%. For the same compound, the inhibition at 0.3125 µM (Plasmodium falciparum, M-833 0.3125 uM, Pop D-F7 replicate 1, read-out: % Inhibition) was -6.3%, the inhibition at 0.3125 µM (Plasmodium falciparum, M-833 0.3125 uM, Pop D-F7 replicate 3, read-out: % Inhibition) was -0.415% and the inhibition at 0.625 µM (Plasmodium falciparum, M-833 0.625 uM, Pop D-F7 replicate 1, read-out: % Inhibition) was 1.16%. For the same compound, the inhibition at 0.625 µM (Plasmodium falciparum, M-833 0.625 uM, Pop D-F7 replicate 3, read-out: % Inhibition) was 0.692%, the inhibition at 1.25 µM (Plasmodium falciparum, M-833 1.25 uM, Pop D-F7 replicate 1, read-out: % Inhibition) was 10.2% and the inhibition at 1.25 µM (Plasmodium falciparum, M-833 1.25 uM, Pop D-F7 replicate 3, read-out: % Inhibition) was 10.1%. The inhibition at 2.5 µM (Plasmodium falciparum, M-833 2.5 uM, Pop D-F7 replicate 1, read-out: % Inhibition) was 25%, the inhibition at 2.5 µM (Plasmodium falciparum, M-833 2.5 uM, Pop D-F7 replicate 3, read-out: % Inhibition) was 40.1% and the inhibition at 5 µM (Plasmodium falciparum, M-833 5 uM, Pop D-F7 replicate 1, read-out: % Inhibition) was 49.3%. The inhibition at 5 µM (Plasmodium falciparum, M-833 5 uM, Pop D-F7 replicate 3, read-out: % Inhibition) was 56.3%, the inhibition at 10 µM (Plasmodium falciparum, M-833 10 uM, Pop D-F7 replicate 1, read-out: % Inhibition) was 71.3% and the inhibition at 10 µM (Plasmodium falciparum, M-833 10 uM, Pop D-F7 replicate 3, read-out: % Inhibition) was 60.1%. It also gave an inhibition at 0.0390625 µM (Plasmodium falciparum, Pop D-F7 replicate 1, M-833 0.0390625 uM) of -0.465%, an inhibition at 0.078125 µM (Plasmodium falciparum, Pop D-F7 replicate 1, M-833 0.078125 uM) of -0.401% and an inhibition at 0.15625 µM (Plasmodium falciparum, Pop D-F7 replicate 1, M-833 0.15625 uM) of 3.58%. The inhibition at 0.3125 µM (Plasmodium falciparum, Pop D-F7 replicate 1, M-833 0.3125 uM) was 2.21%, the inhibition at 0.625 µM (Plasmodium falciparum, Pop D-F7 replicate 1, M-833 0.625 uM) was 8.79% and the inhibition at 1.25 µM (Plasmodium falciparum, Pop D-F7 replicate 1, M-833 1.25 uM) was 10.1%. The inhibition at 2.5 µM (Plasmodium falciparum, Pop D-F7 replicate 1, M-833 2.5 uM) was 29%, the inhibition at 5 µM (Plasmodium falciparum, Pop D-F7 replicate 1, M-833 5 uM) was 45.3% and the inhibition at 10 µM (Plasmodium falciparum, Pop D-F7 replicate 1, M-833 10 uM) was 71.1%. For the same compound, the EC50 (Plasmodium falciparum, read-out: EC50 (95% confidence interval)) was 2970 nM, the “Normalised to DMSO” value (Pop D-F7 replicate 1, M-833 0.0390625 uM) was 100.465 and the “Normalised to DMSO” value (Pop D-F7 replicate 1, M-833 0.078125 uM) was 100.401. For the same compound, the “Normalised to DMSO” value (Pop D-F7 replicate 1, M-833 0.15625 uM) was 96.4217, the “Normalised to DMSO” value (Pop D-F7 replicate 1, M-833 0.3125 uM) was 97.7856 and the “Normalised to DMSO” value (Pop D-F7 replicate 1, M-833 0.625 uM) was 91.2067. The “Normalised to DMSO” value (Pop D-F7 replicate 1, M-833 1.25 uM) was 89.8748, the “Normalised to DMSO” value (Pop D-F7 replicate 1, M-833 2.5 uM) was 70.9884 and the “Normalised to DMSO” value (Pop D-F7 replicate 1, M-833 5 uM) was 54.6534. For the same compound, the “Normalised to DMSO” value (Pop D-F7 replicate 1, M-833 10 uM) was 28.9313.
